This note sets out measurements from ChEMBL document CHEMBL1201862, “PubChem BioAssay data set” (2004).

Holding throughout (assay): NCI-60 cell line screen, 48 h
For assay [1], the system named is UACC-257.
Assay [2] has as its system NCI-H226.
Assay [3] concerns A498.
For assay [4], the system named is M14.
Assay [5] has as its system SNB-19.
The subject of assay [6] is MDA-MB-231.
Assay [7] has as its system OVCAR-8.
Assay [8] relates to T47D.
The test system of assay [9] is UACC-62.
Assay [10] relates to U-251.
Assay [11] has as its system HCT-116.
The test system of assay [12] is CAKI-1.
Assay [13] concerns K562.
Assay [14] relates to IGROV-1.
The test system of assay [15] is CCRF-CEM.
Assay [16] deals with MDA-N.
The test system of assay [17] is DU-145.
Assay [18] relates to HCT-15.
For assay [19], the system named is MDA-MB-435.

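96-well plates; 48 h exposure; 5 concentrations. Endpoints by linear interpolation between flanking doses. Not reached: highest tested concentration assigned. GI50: concentration for 50% inhibition of growth.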 The source made the active and inactive calls. Rule as the data show it: active = GI50 up to about 1.1 µM and inactive = higher.

Regarding `COc1cccc2nc3c(C(=O)NCCN(C)C)cccc3cc12`, the GI50 in [1] is 1.92 µM (inactive); in assay [2], 1.4 µM (inactive); in assay [3], 0.307 µM (active); in assay [4], 1.64 µM (inactive); in assay [5] it was 2.35 µM (inactive); in [6] it was 2.37 µM (inactive). Moreover, the GI50 in assay [7] was 1.26 µM (inactive); in [8], 3.65 µM (inactive); in [9], 2.23 µM (inactive); in assay [10], 1.44 µM (inactive); in assay [11], 1.34 µM (inactive); in [12], 0.619 µM (active). The GI50 in assay [13] is 1.95 µM (inactive); in [14] it was 1.88 µM (inactive); in assay [15], 518 nM (active); in assay [16] it was 2.18 µM (inactive); in [17], 5.74 µM (inactive); in [18] it was 1910 nM. In addition, the GI50 in assay [19] was 2.69 µM (inactive).
For `CC1CNC(c2ccc(CN3CCC(CCCC4CCN(Cc5ccc(C6=NC(C)CN6)cc5)CC4)CC3)cc2)=N1` (stereo not drawn), the GI50 in assay [1] was 18.8 µM (inactive); in [2] it was 32.9 µM (inactive); in assay [3], > 100 µM (inactive); in [4] it was 62.5 µM (inactive); in assay [5], 24.5 µM (inactive); in assay [6] it was 21.2 µM (inactive). The GI50 in [7] was 71.3 µM (inactive); in assay [8], 50 µM (inactive); in assay [9], 59.8 µM (inactive); in assay [10], 35 µM (inactive); in assay [11] it was 29 µM (inactive); in assay [12], > 100 µM (inactive). Also, the GI50 in [13] was 35 µM (inactive); in assay [14] it was > 100 µM (inactive); in assay [15], 19500 nM (inactive); in [16] it was 17.5 µM (inactive); in assay [17], 45.8 µM (inactive); in assay [18], greater than 100000 nM. Besides, in assay [19], the GI50 is 17.2 µM (inactive).
As to `C=C1C(=O)O[C@@H]2C[C@@H](C)[C@@H]3[C@@H](OC4OC(COC(C)=O)C(O)C(O)C4O)CC(=O)[C@@]3(C)C[C@H]12` (stereo partly drawn), the GI50 was 1.68 µM (inactive) in assay [1]; 11 µM (inactive) in assay [2]; 15.5 µM (inactive) in assay [3]; 1.43 µM (inactive) in assay [4]; 20.2 µM (inactive) in [5]; 4.36 µM (inactive) in assay [6]. The GI50 in [7] was 1.36 µM (inactive); in assay [8] it was 2.84 µM (inactive); in assay [9], 1.55 µM (inactive); in [10], 7.19 µM (inactive); in assay [11], 0.659 µM (active); in assay [12], 0.508 µM (active). The GI50 is 0.596 µM (active) in assay [13]; 2.17 µM (inactive) in assay [14]; 238 nM (active) in [15]; 1.66 µM (inactive) in assay [16]; 8.38 µM (inactive) in assay [17]; 218 nM in [18]. The GI50 in assay [19] was 2.26 µM (inactive).
Turning to `C=C1CC(COc2ccc3c(C)cc(=O)oc3c2)(c2ccccc2)OC1=O` (stereo not drawn), the GI50 is 1.83 µM (inactive) in assay [1]; 6.11 µM (inactive) in assay [2]; 2.64 µM (inactive) in [3]; 1.33 µM (inactive) in assay [4]; 15.2 µM (inactive) in [5]; 2.74 µM (inactive) in assay [6]. The GI50 in assay [7] is 2.26 µM (inactive); in assay [8], 2.24 µM (inactive); in [9] it was 1.61 µM (inactive); in assay [10], 10.4 µM (inactive); in assay [11], 1.27 µM (inactive); in assay [12], 1.64 µM (inactive). The GI50 is 0.356 µM (active) in assay [13]; 1.84 µM (inactive) in [14]; 281 nM (active) in [15]; 1.95 µM (inactive) in assay [16]; 2.48 µM (inactive) in assay [17]; 1740 nM in [18]. Further, in assay [19], the GI50 was 2.43 µM (inactive).
In the case of `C#C[C@]1(O)CC[C@H]2[C@@H]3CCC4=C/C(=N/CCOC(=O)c5cccc6cc7ccccc7nc56)CC[C@@H]4[C@H]3CC[C@@]21C`, the GI50 in [1] was 27.8 µM (inactive); in [2] it was > 100 µM (inactive); in [3], 41 µM (inactive); in [4] it was 23 µM (inactive); in assay [5], 30.4 µM (inactive); in assay [6], 16.4 µM (inactive). Moreover, the GI50 was 10 µM (inactive) in assay [7]; 16.8 µM (inactive) in assay [8]; 22 µM (inactive) in [9]; 12.7 µM (inactive) in assay [10]; 27.1 µM (inactive) in assay [11]; 42.4 µM (inactive) in assay [12]. In addition, the GI50 is > 100 µM (inactive) in [13]; 13.8 µM (inactive) in assay [14]; > 100000 nM (inactive) in [15]; 37.6 µM (inactive) in [16]; 21 µM (inactive) in [17]; 17500 nM in assay [18]. Further, in assay [19], the GI50 is 27.3 µM (inactive).
As to `CCN(CCCl)c1ccc(NC(=O)c2cc(C(=O)NCCN(C)C)cc(C(=O)Nc3ccc(N(CC)CCCl)cc3)c2)cc1`, the GI50 was 18.1 µM (inactive) in assay [1]; 3.94 µM (inactive) in [2]; 18.5 µM (inactive) in [3]; 9.38 µM (inactive) in assay [4]; 1.36 µM (inactive) in assay [5]; 15.6 µM (inactive) in assay [6]. The GI50 in assay [7] was 3.57 µM (inactive); in assay [8], 18.7 µM (inactive); in assay [9], 4.98 µM (inactive); in [10], 2.18 µM (inactive); in assay [11], 3.03 µM (inactive); in assay [12] it was 27.5 µM (inactive). Also, the GI50 is 2.09 µM (inactive) in [13]; 6.43 µM (inactive) in assay [14]; 68.7 nM (active) in assay [15]; 11.1 µM (inactive) in [16]; 8.41 µM (inactive) in [17]; 51100 nM in [18]. For the same compound, the GI50 in assay [19] is 8.32 µM (inactive).
`Oc1cc(-c2cccc(OCc3ccccc3)c2)nc2cc3c(cc12)OCO3`: the GI50 in assay [1] is 14.7 µM (inactive); in assay [2] it was 0.455 µM (active); in assay [3], 0.256 µM (active); in assay [4], 0.311 µM (active); in assay [5], 0.423 µM (active); in assay [6] it was 0.605 µM (active). The GI50 in [7] was 0.339 µM (active); in assay [8], > 52 µM (inactive); in assay [9], 0.37 µM (active); in assay [10] it was 0.245 µM (active); in [11], 0.346 µM (active); in assay [12], 0.673 µM (active). Further, the GI50 in assay [13] is 0.235 µM (active); in [14], 1.09 µM (active); in assay [15], 274 nM (active); in assay [16] it was 0.106 µM (active); in [17], 0.644 µM (active); in assay [18] it was 376 nM. In addition, the GI50 in assay [19] was 0.0902 µM (active).
